This note sets out measurements from article PMC11191095, “QSAR Reveals Decreased Lipophilicity of Polar Residues Determines the Selectivity of Antimicrobial Peptide Activity” (ACS Omega, 2024).

Converted amounts (≈) assume the structure as drawn. Where a SMILES comes first, the peptide text is derived from it. A value given as a limit tells only on which side of the number the result lay.

Holding throughout (assay): microbe, parasite or virus in culture
One assay relates to A. baumannii AYE. It counts as cell-based, Acinetobacter baumannii. Conditions: for Modal MIC: A. baumannii AYE (R). A digest of the protocol:
(§1)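 Peptides 128→2 μg/mL, 2-fold series; inoculum ~5 × 10^5 CFU/mL from overnight culture (OD600 0.01, mixed 1:1). MHB non-cation-adjusted for bacteria, RPMI 1640 + 2% glucose for fungi. 37 °C, 20 h, OD600. MIC50/MIC90 at 50%/90% inhibition; n ≥ 3.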

The next assay relates to A. baumannii ATCC 17978. The format is cell-based, Acinetobacter baumannii. Particulars: for Modal MIC: A. baumannii ATCC 17978 (S). A digest of the protocol:
as §1

The test system of the next assay is K. pneumoniae M6. The format is cell-based, Klebsiella pneumoniae. Conditions: for Modal MIC: K. pneumoniae M6 (S). On the procedure: (§2) Antimicrobial activity was evaluated against a panel of 18 pathogens consisting of eight Gram-negative strains (E. coli NCTC 12923, E. coli LEC001, Pseudomonas aeruginosa PAO1, P. aeruginosa NCTC 13437, Acinetobacter baumannii ATCC 17978, A. baumannii AYE, Klebsiella pneumoniae M6, K. pneumoniae NCTC 13368), four Gram-positive strains (Staphylococcus aureus ATCC 9144, S. aureus NCTC 13616, S. aureus USA300, S. aureus 1199B) and six fungi (Candida auris TDG 1912, C. albicans NCPF 8018, C. krusei NCPF 3876, C. tropicalis NCPF 8760, and C. parapsilosis NCPF 3209). Pathogens were grown in noncation adjusted Mueller Hinton broth (MHB, for bacteria) or Roswell Park Memorial Institute (RPMI 1640) + 2% glucose (for fungi) at 37 °C with 180 rpm shaking and maintained on solid media (tryptic soy agar for bacteria and Sabouraud dextrose agar for fungi). For an antibiogram, see Suppl.
(§3) The 46 peptides were serially diluted (128 to 2 μg/mL) in media down polypropylene 96-well plates. Bacteria or fungi, diluted from an overnight culture to an OD600 of 0.01, were added to the serially diluted peptides at a 1:1 ratio resulting in a starting cell density of ∼5 × 10^5 CFU/mL. Plates were incubated at 37 °C for 20 h, and the optical density was determined spectrophotometrically at 600 nm. Minimum inhibition concentrations (MICs) were determined from a minimum of three biological repeats and are reported in μg/mL as well as μM. […] The MIC50 or MIC90 is defined as the lowest peptide concentration that results in 50% or 90% growth inhibition over a 20 h treatment period, respectively.

The next assay concerns K. pneumoniae NCTC 13368. It counts as cell-based, Klebsiella pneumoniae. Particulars: for Modal MIC: K. pneumoniae NCTC 13368 (R). How it is done:
as §2, §3

Another assay concerns S. aureus (MRSA) 1199B. It counts as cell-based, Staphylococcus aureus. Particulars: for Modal MIC: S. aureus (MRSA) 1199B (R). A digest of the protocol:
as §1

Assay [1] relates to S. aureus (MRSA) NCTC 13616. The format is cell-based, Staphylococcus aureus. Particulars: for Modal MIC: S. aureus (MRSA) NCTC 13616 (R). A digest of the protocol:
as §1

Assay [2] has as its system S. aureus (MSSA) ATCC 9144. It counts as cell-based, Staphylococcus aureus. Conditions: for Modal MIC: S. aureus (MSSA) ATCC 9144 (S). A digest of the protocol: as §1
In the next assay the test system is S. aureus (MRSA) USA300. It counts as cell-based, Staphylococcus aureus. Particulars: for Modal MIC: S. aureus (MRSA) USA300 (R). In outline: as §1
For another assay, the system named is P. aeruginosa NCTC 13437. It counts as cell-based, Pseudomonas aeruginosa. Particulars: for Modal MIC: P. aeruginosa NCTC 13437 (R). On the procedure: as §2, §3
The next assay deals with P. aeruginosa PAO1. The format is cell-based, Pseudomonas aeruginosa. Conditions: for Modal MIC: P. aeruginosa PAO1 (S). How it is done:
as §2, §3

Another assay deals with E. coli LEC001. The format is cell-based, Escherichia coli. Particulars: for Modal MIC: E. coli LEC001 (R). In outline: as §1
The subject of a further assay is E. coli NCTC 12923. The format is cell-based, Escherichia coli. Particulars: for Modal MIC: E. coli NCTC 12923 (S). In outline:
as §1

Another assay relates to C. auris TDG 1912. It counts as cell-based, Candida auris. Particulars: C. auris TDG 1912. A digest of the protocol: as §1
A further assay concerns C. tropicalis NCPF 8760. It counts as cell-based. Conditions: C. tropicalis NCPF 8760; shown in µM. In outline: as §1
For assay [3], the system named is C. parapsilosis NCPF 3209. The format is cell-based. Particulars: C. parapsilosis NCPF 3209. In outline: as §1
In the next assay the test system is C. albicans NCPF 3281. It counts as cell-based. Conditions: C. albicans NCPF 3281. A digest of the protocol: as §1
The next assay concerns C. krusei NCPF 3876. The format is cell-based. Particulars: C. krusei NCPF 3876; shown in µM. In outline:
as §1

In the next assay the test system is C. glabrata NCPF 8018. The format is cell-based. Conditions: C. glabrata NCPF 8018. A digest of the protocol: as §1
[4] abbreviates: Staphylococcus aureus, 20 h, read-out: Modal MIC.
Where [5] appears, read: MHB, 37 °C, 20 h, OD600, min. three biological repeats.
Where [6] appears, read: 50% growth inhibition, RPMI 1640 + 2% glucose, 37 °C, 20 h.
Setting [7] is: 90% growth inhibition, RPMI 1640 + 2% glucose, 37 °C, 20 h.

`O=C(O)c1cn(C2CC2)c2cc(N3CCNCC3)c(F)cc2c1=O` [Ciprofloxacin, reference compound]: the MIC in the assay on A. baumannii AYE (Acinetobacter baumannii, 20 h, read-out: Modal MIC) is 128 µg/mL (≈ 386 µM); in the assay with A. baumannii ATCC 17978 (Acinetobacter baumannii, ATCC17978, 20 h, read-out: Modal MIC), 0.5 µg/mL (≈ 1.51 µM); in the assay on K. pneumoniae M6 (Klebsiella pneumoniae, M6, 20 h, read-out: Modal MIC) it was under 0.5 µg/mL; in the assay with K. pneumoniae NCTC 13368 (Klebsiella pneumoniae, NCTC13368, 20 h, read-out: Modal MIC), 0.5 µg/mL (≈ 1.51 µM); in the assay on S. aureus (MRSA) 1199B (Staphylococcus aureus, MRSA, 20 h, read-out: Modal MIC) it was 8 µg/mL (≈ 24.1 µM); in assay [1] (setting [4]) it was 64 µg/mL (≈ 193 µM). For the same molecule, the MIC is 1 µg/mL (≈ 3.02 µM) in assay [2] (setting [4]); 64 µg/mL (≈ 193 µM) with S. aureus (MRSA) USA300 (setting [4]); 64 µg/mL (≈ 193 µM) in the assay with P. aeruginosa NCTC 13437 (Pseudomonas aeruginosa, NCTC13437, 20 h, read-out: Modal MIC); 0.5 µg/mL (≈ 1.51 µM) with P. aeruginosa PAO1 (Pseudomonas aeruginosa, PAO1, 20 h, read-out: Modal MIC); 32 µg/mL (≈ 96.6 µM) with E. coli LEC001 (Escherichia coli, LEC001, 20 h, read-out: Modal MIC); at most 0.125 µg/mL with E. coli NCTC 12923 (Escherichia coli, NCTC12923, 20 h, read-out: Modal MIC).

Take `CC[C@H](C)[C@H](NC(=O)[C@H](C)NC(=O)CNC(=O)[C@H](C)NC(=O)[C@H](CCCCN)NC(=O)[C@H](CO)NC(=O)[C@H](C)NC(=O)[C@H](CCSC)NC(=O)CN)C(=O)N[C@@H](C)C(=O)NCC(=O)N[C@@H](CCCCN)C(=O)N[C@H](C(=O)N[C@@H](C)C(=O)N[C@@H](CCCCN)C(=O)N[C@H](C(=O)N[C@@H](C)C(=O)N[C@@H](CC(C)C)C(=O)N[C@@H](CCCCN)C(=O)N[C@@H](C)C(=O)N[C@@H](CC(C)C)C(N)=O)C(C)C)[C@@H](C)CC` [DRAMP02272a] (H-GMASKAGAIAGKIAKVALKAL-NH2): the “Modal MIC” value with A. baumannii AYE (shown in µM) came out at 1 µM; with A. baumannii ATCC 17978 (shown in µM), 2 µM; in the assay with K. pneumoniae M6 (shown in µM) it was 16 µM; in the assay with K. pneumoniae NCTC 13368 (shown in µM), 32 µM; with S. aureus (MRSA) 1199B (shown in µM), 32 µM; in [1] (shown in µM) it was 8 µM. Besides, the “Modal MIC” value in assay [2] (shown in µM) is 4 µM; in the assay on S. aureus (MRSA) USA300 (shown in µM), 16 µM; with P. aeruginosa NCTC 13437 (setting [5]), over 128 µg/mL; with P. aeruginosa NCTC 13437 (shown in µM) it was over 64 µM; with P. aeruginosa PAO1 (setting [5]) it was over 128 µg/mL; in the assay on P. aeruginosa PAO1 (shown in µM), over 64 µM. The “Modal MIC” value in the assay with E. coli LEC001 (shown in µM) worked out at 4 µM; with E. coli NCTC 12923 (shown in µM) it was 2 µM. Also, the “Modal MIC50” value in the assay on C. auris TDG 1912 (50% growth inhibition, RPMI 1640 + 2% glucose, 37 °C, 20 h, OD600) is listed as over 128 µg/mL; in the assay with C. auris TDG 1912 (shown in µM), over 64 µM; in the assay with C. tropicalis NCPF 8760, 16 µM; in assay [3] (setting [6]), over 128 µg/mL; in assay [3] (shown in µM), over 64 µM; in the assay on C. albicans NCPF 3281 (setting [6]), over 128 µg/mL. The “Modal MIC50” value in the assay with C. albicans NCPF 3281 (shown in µM) was over 64 µM; in the assay with C. krusei NCPF 3876, 64 µM; in the assay on C. glabrata NCPF 8018 (setting [6]) it was over 128 µg/mL; with C. glabrata NCPF 8018 (shown in µM), over 64 µM. Further, the “Modal MIC90” value was over 128 µg/mL with C. auris TDG 1912 (90% growth inhibition, RPMI 1640 + 2% glucose, 37 °C, 20 h, OD600); over 64 µM in the assay on C. auris TDG 1912 (shown in µM); 16 µM in the assay with C. tropicalis NCPF 8760; over 128 µg/mL in assay [3] (setting [7]); over 64 µM in assay [3] (shown in µM); over 128 µg/mL in the assay on C. albicans NCPF 3281 (setting [7]). Besides, the “Modal MIC90” value is given as over 64 µM with C. albicans NCPF 3281 (shown in µM), 64 µM in the assay on C. krusei NCPF 3876, over 128 µg/mL with C. glabrata NCPF 8018 (setting [7]) and over 64 µM with C. glabrata NCPF 8018 (shown in µM).

Gentamycin [reference compound]: the “Modal MIC” value is given as over 512 µg/mL in the assay with A. baumannii AYE (setting [5]); 0.5 µg/mL in the assay on A. baumannii ATCC 17978 (setting [5]); 0.25 µg/mL in the assay on K. pneumoniae M6 (setting [5]); 4 µg/mL with K. pneumoniae NCTC 13368 (setting [5]); 0.25 µg/mL in the assay on S. aureus (MRSA) 1199B (setting [5]); 0.25 µg/mL in [1] (setting [5]). In addition, the “Modal MIC” value in assay [2] (setting [5]) is 0.25 µg/mL; in the assay with S. aureus (MRSA) USA300 (setting [5]), 4 µg/mL; in the assay with P. aeruginosa NCTC 13437 (setting [5]) it was 256 µg/mL; in the assay with P. aeruginosa PAO1 (setting [5]) it was 4 µg/mL; in the assay on E. coli LEC001 (setting [5]), 4 µg/mL; with E. coli NCTC 12923 (MHB, ~5×10^5 CFU/mL, 37 °C, 20 h, OD600, min. three biological repeats), 1 µg/mL.
